The values below come from US20050192371A1, “Preparation and use of photopolymerized microparticles” (priority 1998, published 2005).

Series [1] in a line: Drug release / degradation of PMSA microparticles in phosphate-buffered saline. In kind it is physicochemical. The note with it: FIG. 13; tacrine absorbance at 322 nm, Rose Bengal at 550 nm. How it is done: The centrifuge tube was shaken to disperse the particles throughout the solution and placed in a 37° C. temperature bath for 3 minutes. The tube was then immediately centrifuged, and the buffer was drawn off and analyzed for drug concentration. The centrifuge tube was refilled with 37° C. PBS, and the cycle was repeated for about 3 hours. The tubes remained in the temperature bath for 3 minutes for the first hour, and 5-10 minutes for the remainder of the time data was collected. UV-Vis spectrophotrometry (Model 8452, Hewlett Packard) was used to determine the concentration of tacrine (absorbance was measured at 322 nm) in experiment samples.
Drug release experiments illustrate the release properties of the microparticles formed in the photopolymerization PCA process. […] The Rose Bengal release profile is also affected by photobleaching of particles in room light. This may explain the lag time at the beginning of the Rose Bengal release in FIG. 13.

A short description of series [2]: Release of Rose Bengal from MSA disks versus mass fraction degraded. In kind it is physicochemical. The note with it: FIG. 14; homogeneous and heterogeneous MSA disks, 10 ml PBS, 37° C., absorbance 550 nm. From the text:
Crosslinked particles containing Rose Bengal were incorporated in a MSA matrix and polymerized into disks. Rose Bengal was also homogeneously incorporated into another set of MSA disks and polymerized. Advantages of using a particle-polymer composite include multi-mode degradation and release possible through the use of different biocompatible polymers and drugs, ease of control of surface degradation, and in one particular application, bone growth is facilitated by the resulting porous structures.
Disk samples were 0.25 to 0.3 grams, 13 mm diameter and 1.5 mm thick. Disks were placed in 10 ml of PBS buffer at 37° C. to monitor the degradation.
The absorbance of Rose Bengal was measured at 550 nm, and the disks were weighed to monitor the degradation.

Turning to `O=C([O-])c1c(Cl)c(Cl)c(Cl)c(Cl)c1-c1c2cc(I)c(=O)c(I)c-2oc2c(I)c([O-])c(I)cc12.[Na+].[Na+]` [Rose Bengal], in series [1], the “release profile from PMSA particles into PBS buffer” value is on record as “some influence of diffusion in the release”. For the same molecule, the “release behavior as a function of the mass fraction of the disks degraded” value in series [2] was “linear relationship between degradation and release”.
As for `Nc1c2c(nc3ccccc13)CCCC2` [tacrine, 9-amino-1,2,3,4-tetrahydroacridine], the “release profile from PMSA particles into PBS buffer” value in series [1] was “follows the curve for surface erosion of a sphere”.
